Results as given in patent publication US7026350B2, “Water-soluble drugs and methods for their production” (The United States of America as represented by the …, priority 1998, dated 2006).
Like-named read-outs stand apart in the source and are kept apart here.

How the values were obtained:
[1] = tested on: N87 cells; experiment: N87 proliferation measured by tritiated-thymidine incorporation; format: cell-based
Description: N87 cells were exposed to the 17-demethoxy-17-aminoderivative of geldanamycin indicated in Table 1 below, and the concentration at which the proliferation of the N87 cells was inhibited by 50% was determined in nanomolar units.

[2] = Solubility in water
[3] = tested on: HuT102 cells; experiment: Internalization of radiolabeled antibody by HuT102 cells; format: cell-based; settings: cells washed with dilute acid
Description: This example employs three antibodies, e21, AE1 (from Landolfi, Protein Design Labs, California), and anti-Tac (i.e., Zenapax from Hoffman-LaRoche, Inc., Nutley, N.J.). The antibodies e21 and AE1 bind Her2 with high affinity, and anti-Tac binds CD25 with high affinity. All three antibodies were radiolabeled and incubated with cells expressing the respective ligands on their cell surfaces (N87 cells for e21 and AE1 and HuT102 cells for anti-Tac). Both N87 cells and HuT102 cells are cancer cells that are known to be sensitive to the effects of geldanamycin. (HuT102 cells are cultured cells from an ATL patient available from the inventor's laboratories.) The cells were washed with dilute acid to remove unincorporated radiolabel, and the amount of radiolabel remaining in the cells was measured as an indication of the amount of antibody internalized.

[4] = tritiated-thymidine incorporation, read-out: concentration that inhibited 50% of the N87 proliferation

With `COC1C=CC=C(C)C(=O)NC2=CC(=O)C(NCCCN)=C(CC(C)CC(OC)C(O)C(C)C=C(C)C1OC(N)=O)C2=O` (centres unmarked) [17-aminopropylamino-geldanamycin, 17-aminopropylaminogeldanamycin] as the molecule, how does the IC50 [1, 4] read?
Its IC50 is 180 nM.

For “17-cys-GMB-aminopropylaminogeldanamycin [compound 4]”, which solubility in water [2] is on record?
Its solubility in water is “water-soluble”.

With `COC1=C2C[C@@H](C)C[C@H](OC)[C@H](O)[C@@H](C)/C=C(\C)[C@H](OC(N)=O)[C@@H](OC)/C=C\C=C(/C)C(=O)NC(=CC1=O)C2=O` [geldanamycin] as the molecule, how does the IC50 ([1]; Table 1, read-out: IC50 (nM), proliferation of N87 cells inhibited by 50%) read?
Its IC50 is 8.4 nM.

And the IC50 [1, 4]?
Its IC50 is 8 nM.

B1: anti-Tac: anti-Tac (i.e., Zenapax from Hoffman-LaRoche), binds CD25 with high affinity (antibody, chains of the INN, looked up, V domains shown)
VH: QVQLVQSGAEVKKPGSSVKVSCKASGYTFTSYRMHWVRQAPGQGLEWIGYINPSTGYTEYNQKFKDKATITADESTNTAYMELSSLRSEDTAVYYCARGGGVFDYWGQGTLVTVSS
VL: DIQMTQSPSTLSASVGDRVTITCSASSSISYMHWYQQKPGKAPKLLIYTTSNLASGVPARFSGSGSGTEFTLTISSLQPDDFATYYCHQRSTYPLTFGQGTKVEVK
For B1, which “radiolabel taken up by HuT102 cells (antibody internalized)” value [3] is on record?
The value was “no significant quantity”.
